Data on one compound can be found in patent publication US5459236A, “Vasoactive vasotocin derivatives” (Ferring AB, priority 1990, dated 1995).

SMILES strings stand for the structures.

Assay [1] deals with anaesthetised Sprague Dawley rats, previously treated with dibenamine. The assay can be described thus: Blood pressure (pressor) test, 4-point test against standard AVP. In kind it is in vivo. The source says: (§1) Vasotocin derivatives according to the invention have been tested for potency of both blood pressure and antidiuretic activity in a so-called 4-point test, i.e. the activity of the test substances has been related to a standard preparation (AVP=argininevasopressin), and the effects of two dose levels for each substance have been analysed. In addition, three pressor-specific VT derivatives according to our previous application SE 8703855-0 have been tested for a comparison, namely 1-Hmp-2-Phe-S-Orn-VT (compound 2 in Table 1), 1-Hmp-2-Phe-S-Dab-VT (compound 3 in Table 1), and 1-Hmp-2-Phe-S-Dab(Ala)-VT (compound 5 in Table 1).
Blood pressure tests were carried out on anaesthetised Sprague Dawley rats (about 250 g), previously treated with dibenamine (Dekanski, J., 1952. Br. J. Pharmacol. 7, 567). Maximal blood pressure increase after intravenous injections of peptide was used as a measure of the effect, expressed as intensity.
In addition to potency determination based-on effect intensity, a measure of the length of the effect has been stated (index of persistence (I.P.), Pliska, V., 1966. Arzheim. Forech. 16, 886). This dimensionless factor is a measure of the effect duration of the respective analog in relation to the standard AVP.
(§2) In these two tests, a comparison was made between the effects of the respective derivative and the effect of a standard preparation, AVP, and potency was determined with the aid of a 4-point test and is indicated in international units per micromole (IU/μmole) (Sturmer, E., in Handbook of Expermimental Pharmacology, 1966, Vol 23, pp 130-189).
The specificity in respect of blood pressure is indicated by the ratio of potency blood pressure/potency antidiuresis (BP/AD).

Assay [2] relates to anaesthetised water-loaded Sprague Dawley rats. Kind of assay: Antidiuretic potency test, 4-point test against standard AVP. The format is in vivo. To be noted: maximal increase of urine conductivity after intravenous injection, 4-point test vs AVP.
Description: as §1
Antidiuretic potency was determined with the aid of anaesthetised water-loaded Sprague Dawley rats (200 g) (Larsson, L. E., Lindeberg, G., Melin, P. and Pliska, V., 1978, J. Mad. Chem. 21, 353). Maximal increase of urine conductivity after intravenous injections was used as effect parameter.
as §2

`NC(=O)CC[C@@H]1NC(=O)[C@H](Cc2ccccc2)NC(=O)[C@H](Cc2ccc(O)cc2)NC(=O)[C@@H](N)CSSC[C@@H](C(=O)N2CCC[C@H]2C(=O)N[C@@H](CCCN=C(N)N)C(=O)NCC(N)=O)NC(=O)[C@H](CC(N)=O)NC1=O` [AVP, argininevasopressin]: the “BLOOD PRESSURE BP I.P (measure of duration of effect), index of persistence” value in assay [1] (dimensionless, effect duration in relation to the standard AVP, intravenous) is 1.0. For the same compound, the “BLOOD PRESSURE BP potency” value in assay [1] (maximal blood pressure increase after intravenous injection, 4-point test vs AVP, anaesthetised rats) amounted to 614 ± 25 IU/μmole. The “BP/AD (measure of specificity)” value in assay [1] (ratio of potency blood pressure/potency antidiuresis) stood at 1.0. For the same compound, the “ANTIDIURESIS AD potency” value in assay [2] is 620 ± 54 IU/μmole.
